Where only a bound is given, the exact number is not on record here.

The test system of the experiment is ATF4 luciferase reporter in HEK293T cells. The experiment is described as follows: ATF4-Luc assay (in vitro model of VWMD). It is filed as cell-based, human. The note with it: Homo sapiens, HEK-293T, 7 h, HEK293T cells carrying the ATF4 luciferase reporter, 1 μg/mL tunicamycin, One Glo luminescence. The essentials:
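Stable HEK293T line expressing firefly luciferase behind the human ATF4 5′-UTR, treated with 1 μg/mL tunicamycin plus compound for 7 hours. Luminescence read with One Glo; EC50 determined.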
`O=C(COc1ccc(Cl)c(F)c1)NC12CCC(n3cc(C(=O)N4CC[C@H](OC(F)(F)F)C4)cn3)(CC1)CC2` [Compound 624, 2-(4-chloro-3-fluorophenoxy)-N-(4-{4-[(3S)-3-(trifluoromethoxy)pyrrolidine-1-carbonyl]-1H-pyrazol-1-yl}bicyclo[2.2.2]octan-1-yl)acetamide]: the EC50 was under 0.01 µM. Take `O=C(NC12CC(n3cc([C@@H]4C[C@H]4COC(F)(F)F)nn3)(C1)C2)[C@H]1C[C@@H](O)c2cc(Cl)ccc2O1` (mixture of isomers) [Compound 542, (2R,4R)-6-chloro-4-hydroxy-N-[3-(4-{(1RS,2RS)-2-[(trifluoromethoxy)methyl]cyclopropyl}-1H-1,2,3-triazol-1-yl)bicyclo[1.1.1]pentan-1-yl]-3,4-dihydro-2H-1-benzopyran-2-carboxamide]: the EC50 is under 0.01 µM. The value for `O=C(NC12CC(n3cc(C4CCN(CC(F)(F)F)CC4)cn3)(C1)C2)[C@H]1C[C@@H](O)c2cc(Cl)ccc2O1` [Compound 580, (2R,4R)-6-chloro-4-hydroxy-N-(3-{4-[1-(2,2,2-trifluoroethyl)piperidin-4-yl]-1H-pyrazol-1-yl}bicyclo[1.1.1]pentan-1-yl)-3,4-dihydro-2H-1-benzopyran-2-carboxamide] was under 0.01 µM; that for `O=C(CO[C@H]1C[C@@H](OC(F)(F)F)C1)NC12CC(NC(=O)[C@H]3C[C@@H](O)c4cc(Cl)ccc4O3)(C1)C2` [Compound 164, (2R,4R)-6-chloro-4-hydroxy-N-[3-(2-{[cis-3-(trifluoromethoxy)cyclobutyl]oxy}acetamido)bicyclo[1.1.1]pentan-1-yl]-3,4-dihydro-2H-1-benzopyran-2-carboxamide] was under 0.01 µM; that for `O=C(CO[C@H]1C[C@@H](OC(F)(F)F)C1)NC12CC(NC(=O)[C@@H]3C[C@@H](O)c4cc(Cl)c(Cl)cc4O3)(C1)C2` [Compound 492, (2S,4R)-6,7-dichloro-4-hydroxy-N-[3-(2-{[(1s,3R)-3-(trifluoromethoxy)cyclobutyl]oxy}acetamido)bicyclo[1.1.1]pentan-1-yl]-3,4-dihydro-2H-1-benzopyran-2-carboxamide] was under 0.01 µM. With `O=C(NC12CC(n3cc(-c4ccc(OC(F)(F)F)cn4)cn3)(C1)C2)[C@H]1C[C@@H](O)c2cc(Cl)ccc2O1` [Compound 308, (2R,4R)-6-chloro-4-hydroxy-N-(3-{4-[5-(trifluoromethoxy)pyridin-2-yl]-1H-pyrazol-1-yl}bicyclo[1.1.1]pentan-1-yl)-3,4-dihydro-2H-1-benzopyran-2-carboxamide] the figure was under 0.01 µM; with `O=C(CO[C@H]1C[C@@H](OC(F)(F)F)C1)NC12CC(NC(=O)[C@H]3C[C@@H](O)c4cc(Cl)c(F)cc4O3)(C1)C2` [Compound 461, (2R,4R)-6-chloro-7-fluoro-4-hydroxy-N-[3-(2-{[(1s,3S)-3-(trifluoromethoxy)cyclobutyl]oxy}acetamido)bicyclo[1.1.1]pentan-1-yl]-3,4-dihydro-2H-1-benzopyran-2-carboxamide], under 0.01 µM; with `CC1(C(F)(F)F)CCCN1C(=O)c1cnn(C23CC(NC(=O)[C@H]4C[C@@H](O)c5cc(Cl)ccc5O4)(C2)C3)c1` (stereo partly drawn) [Compound 328, (2R,4R)-6-chloro-4-hydroxy-N-(3-{4-[2-methyl-2-(trifluoromethyl)pyrrolidine-1-carbonyl]-1H-pyrazol-1-yl}bicyclo[1.1.1]pentan-1-yl)-3,4-dihydro-2H-1-benzopyran-2-carboxamide], 0.05 to 0.25 µM.

`O=C(NC12CC(n3cc(-c4ccc(C(F)(F)F)cn4)cn3)(C1)C2)[C@H]1C[C@@H](O)c2cc(F)c(F)cc2O1` [Compound 553, (2R,4R)-6,7-difluoro-4-hydroxy-N-(3-{4-[5-(trifluoromethyl)pyridin-2-yl]-1H-pyrazol-1-yl}bicyclo[1.1.1]pentan-1-yl)-3,4-dihydro-2H-1-benzopyran-2-carboxamide]: the EC50 was under 0.01 µM.

As to `O=C(CO[C@H]1C[C@@H](OC(F)(F)F)C1)NC12CC(NC(=O)[C@H]3C[C@@H](O)c4cc(Cl)ccc4O3)(C1)C2` (racemic) [Compound 114, rac-(2R,4R)-6-chloro-4-hydroxy-N-[3-(2-{[(1s,3s)-3-(trifluoromethoxy)cyclobutyl]oxy}acetamido)bicyclo[1.1.1]pentan-1-yl]-3,4-dihydro-2H-1-benzopyran-2-carboxamide], the EC50 is under 0.01 µM. As to `O=C(NC12CC(n3cc(C(=O)N4CC[C@H](OC(F)(F)F)C4)cn3)(C1)C2)[C@H]1C[C@@H](O)c2cc(C(F)(F)F)ccc2O1` [Compound 326, (2R,4R)-4-hydroxy-N-(3-{4-[(3S)-3-(trifluoromethoxy)pyrrolidine-1-carbonyl]-1H-pyrazol-1-yl}bicyclo[1.1.1]pentan-1-yl)-6-(trifluoromethyl)-3,4-dihydro-2H-1-benzopyran-2-carboxamide], the EC50 was under 0.01 µM. With `O=C(N[C@H]1CC[C@H](n2cc(-c3ccc(C(F)(F)F)cn3)cn2)CC1)[C@H]1C[C@@H](O)c2cc(Cl)c(F)cc2O1` [Compound 578, (2R,4R)-6-chloro-7-fluoro-4-hydroxy-N-[(1r,4R)-4-{4-[5-(trifluoromethyl)pyridin-2-yl]-1H-pyrazol-1-yl}cyclohexyl]-3,4-dihydro-2H-1-benzopyran-2-carboxamide], the EC50 is under 0.01 µM.

Regarding `O=C(NC12CC(n3cc(-c4ccc(C(F)(F)F)cn4)cn3)(C1)C2)C1CNc2cc(C(F)(F)F)c(F)cc2O1` (stereo not drawn) [Compound 591, 7-fluoro-6-(trifluoromethyl)-N-(3-{4-[5-(trifluoromethyl)pyridin-2-yl]-1H-pyrazol-1-yl}bicyclo[1.1.1]pentan-1-yl)-3,4-dihydro-2H-1,4-benzoxazine-2-carboxamide], the EC50 was 0.01 to 0.05 µM. With `O=C(NC12CC(n3cc([C@H]4C[C@@H](OC(F)(F)F)C4)cn3)(C1)C2)[C@H]1C[C@@H](O)c2cc(Cl)ccc2O1` [Compound 330, (2R,4R)-6-chloro-4-hydroxy-N-(3-{4-[cis-3-(trifluoromethoxy)cyclobutyl]-1H-pyrazol-1-yl}bicyclo[1.1.1]pentan-1-yl)-3,4-dihydro-2H-1-benzopyran-2-carboxamide] the figure was under 0.01 µM; with `O=C(N[C@H]1CC[C@H](n2cc(OCCOC(F)(F)F)cn2)CC1)[C@H]1C[C@@H](O)c2cc(Cl)c(F)cc2O1` [Compound 419, (2R,4R)-6-chloro-7-fluoro-4-hydroxy-N-[(1r,4R)-4-{4-[2-(trifluoromethoxy)ethoxy]-1H-pyrazol-1-yl}cyclohexyl]-3,4-dihydro-2H-1-benzopyran-2-carboxamide], under 0.01 µM; with `O=C(COc1ccc(Cl)cc1O)NC12CC(n3cc([C@H]4C[C@@H](OC(F)(F)F)C4)nn3)(C1)C2` [Compound 618, 2-(4-chloro-2-hydroxyphenoxy)-N-(3-{4-[(1s,3s)-3-(trifluoromethoxy)cyclobutyl]-1H-1,2,3-triazol-1-yl}bicyclo[1.1.1]pentan-1-yl)acetamide], 0.01 to 0.05 µM.

For `COc1cc2cn(C34CC(NC(=O)[C@H]5C[C@@H](O)c6cc(Cl)c(Cl)cc6O5)(C3)C4)nc2cn1` [Compound 503, (2R,4R)-6,7-dichloro-4-hydroxy-N-[3-(5-methoxy-2H-pyrazolo[3,4-c]pyridin-2-yl)bicyclo[1.1.1]pentan-1-yl]-3,4-dihydro-2H-1-benzopyran-2-carboxamide], the half-maximal effective concentration (EC50) is under 0.01 µM. Turning to `O=C(N[C@H]1CC[C@H](n2cc(OCCCC(F)(F)F)cn2)CC1)[C@H]1C[C@@H](O)c2cc(Cl)c(F)cc2O1` [Compound 527, (2R,4R)-6-chloro-7-fluoro-4-hydroxy-N-((1r,4R)-4-[4-(4,4,4-trifluorobutoxy)-1H-pyrazol-1-yl]cyclohexyl)-3,4-dihydro-2H-1-benzopyran-2-carboxamide], the concentration giving a half-maximal response (EC50) was under 0.01 µM.

With `O=C(NC12CC(n3cc(C[C@H]4C[C@H](OC(F)(F)F)C4)cn3)(C1)C2)[C@H]1C[C@@H](O)c2cc(Cl)ccc2O1` [Compound 529, (2R,4R)-6-chloro-4-hydroxy-N-[3-(4-{[(1r,3S)-3-(trifluoromethoxy)cyclobutyl]methyl}-1H-pyrazol-1-yl)bicyclo[1.1.1]pentan-1-yl]-3,4-dihydro-2H-1-benzopyran-2-carboxamide], the 50% effective concentration (EC50) lay in the range of 0.01 to 0.05 µM. With `O=C(NC12CC(n3cc(OCCOC(F)F)cn3)(C1)C2)[C@H]1C[C@@H](O)c2cc(Cl)ccc2O1` [Compound 420, (2R,4R)-6-chloro-N-(3-{4-[2-(difluoromethoxy)ethoxy]-1H-pyrazol-1-yl}bicyclo[1.1.1]pentan-1-yl)-4-hydroxy-3,4-dihydro-2H-1-benzopyran-2-carboxamide], the half-maximal effective concentration (EC50) was in the range of 0.01 to 0.05 µM. As for `O=C(NC12CC(n3cc(NCCOC(F)(F)F)cn3)(C1)C2)[C@H]1C[C@@H](O)c2cc(Cl)ccc2O1` [Compound 437, (2R,4R)-6-chloro-4-hydroxy-N-[3-(4-{[2-(trifluoromethoxy)ethyl]amino}-1H-pyrazol-1-yl)bicyclo[1.1.1]pentan-1-yl]-3,4-dihydro-2H-1-benzopyran-2-carboxamide], the 50% effective concentration (EC50) was 0.01 to 0.05 µM. As for `O=C(COc1ccc(Cl)c(F)c1)NC12CC(c3ccc(OCCCOC(F)(F)F)nc3)(C1)C2` [Compound 455, 2-(4-chloro-3-fluorophenoxy)-N-(3-{6-[3-(trifluoromethoxy)propoxy]pyridin-3-yl}bicyclo[1.1.1]pentan-1-yl)acetamide], the EC50 lay within 0.05 to 0.25 µM. The value for `O=C(NC12CC(n3cc(-c4ccc(OC(F)F)cn4)cn3)(C1)C2)[C@H]1C[C@@H](O)c2cc(Cl)ccc2O1` [Compound 575, (2R,4R)-6-chloro-N-(3-{4-[5-(difluoromethoxy)pyridin-2-yl]-1H-pyrazol-1-yl}bicyclo[1.1.1]pentan-1-yl)-4-hydroxy-3,4-dihydro-2H-1-benzopyran-2-carboxamide] was under 0.01 µM; that for `O=C(NC12CC(n3cc(OCCOC(F)(F)F)cn3)(C1)C2)[C@H]1C[C@H](O)c2cc(Cl)ccc2O1` [Compound 632, (2R,4S)-6-chloro-4-hydroxy-N-(3-{4-[2-(trifluoromethoxy)ethoxy]-1H-pyrazol-1-yl}bicyclo[1.1.1]pentan-1-yl)-3,4-dihydro-2H-1-benzopyran-2-carboxamide] was 0.01 to 0.05 µM.

The values above are taken from US20250145594A1, “MODULATORS OF THE INTEGRATED STRESS PATHWAY” (Calico Life Sciences LLC, priority 2020, published 2025).
